Results as given in patent US20170191031A1, “SYSTEMS AND METHODS FOR STEM CELL DIFFERENTIATION” (University of Oslo, priority 2014, published 2017).
Non-standard residues stand in square brackets, D forms with d. Residues, ends and D or L forms follow the SMILES beside them. *: point of attachment. Hexanoyl = CCCCCC(=O)*; Ahx = NCCCCCC(=O)O

Legend:
Type in all cases: cell-based, human
hESC line H1 [1] = assay: Phase I definitive endoderm differentiation, FOXA2/SOX17 immunofluorescence and cell counting; conditions: 24 hour treatment, Phase I endpoint 48 hours, CHIR99021 3 μM, BIO 1 μM, Wnt3a 50 ng/ml
Description: (§1) The scale bars represent 100 μm.
as §1

[2] = tested on: hESC lines 207 and 360, hiPSC lines Detroit; assay: Phase I definitive endoderm differentiation of other pluripotent lines
Protocol: Cells were seeded onto Matrigel coated 12 well plates in E8 medium at a 1:3-1:4 split ratio, and allowed to adhere for 24 hours at 37° C./5% CO2. It should be noted the optimal cell density for each line needs to be established. The cells were washed with phosphate buffered saline (PBS) before being treated with differentiation media. The differentiation protocol utilises similar base media to a well-established differentiation protocol (Hay et al., Proc Natl Acad Sci USA 105, 12301-12306 2008), with replacement of all growth factors with small molecules, and minor adjustments in timing. The protocol incorporates several stages (FIG. 1) utilising different small molecules.
(§2) Phase I of differentiation consists of a 24 hour treatment with RPMI-B27±insulin (RPMI 1640 GlutaMAX+B27 supplement, both from Life Technologies) plus 3-4 μM CHIR99021 (Stemgent), followed by a 24 hour treatment with RPMI-B27 alone. Phase II consists of 5 days of treatment with Knockout DMEM containing 20% Knockout Serum Replacement, 2 mM GlutaMAX, 100 μM 2-mercaptoethanol, 1×MEM non-essential amino acids (Life Technologies) and 1% DMSO (Sigma-Aldrich). Phase III consists of 10 days of treatment with Leibovitz L-15 media containing 8.3% tryptose phosphate broth, 10 μM hydrocortisone 21-hemisuccinate, 50 μg/ml sodium-L-ascorbate, 100 nM dexamethasone (all from Sigma-Aldrich), 0.58% insulin-transferrin-selenium (ITS), 2 mM GlutaMAX (all from Life Technologies), 8.3% foetal bovine serum (Lonza), and 100 nM Dihexa (kind gift from Prof. Joseph Harding, Washington State University). During Phases II and III cells are fed every 48 hours. Cells were photographed during differentiation using a Zeiss phase contrast microscope and ZEN software. The scale bars represent 100 μm.
Cells were washed with PBS before being fixed with a 10 minute treatment of ice cold methanol. Fixed cells were washed in 0.1% PBS-T: PBS containing 0.1% Tween 20 (Sigma-Aldrich). […] Cells were imaged using a Zeiss Observer Fluorescence Microscope and Axiovision imaging software. […]
(§3) Immuno-stained cells were quantified for expression of stage specific markers by manual counting. For Phase I, FOXA2 and SOX17 were counted separately. For Phase II, cells were scored positively if the nucleus was stained for HNF4A and the cytoplasm was stained for AFP. For Phase III, cells were scored positively if the nucleus was HNF4A positive and the cytoplasm was ALB positive. Phase III cells were also quantified for AFP and A1AT staining and were counted as positive if the cytoplasm was stained. […] A minimum of 10 fields of view were quantified, with a minimum of 250 cells counted per field of view. Percentages are presented as the average of all field quantifications, plus or minus the standard deviation across all fields.

[3] = tested on: hESC line H1 and hiPSC line Detroit; assay: Definitive endoderm differentiation in 3D alginate scaffold, TaqMan; conditions: cells encapsulated in alginate scaffold; Phase I conditions RPMI-B27+Chir
Protocol: Differentiation of the hESC line H1 and the hiPSC line Detroit was performed in a 3D environment by encapsulating the cells in an alginate scaffold. The cells were cultured using the same conditions as in 2D with the exception that the spheres were cultured for 6 days in human ES media, then transferred to Phase I conditions (RPMI-B27+Chir). All pluripotency marks were maintained as assessed by TaqMan, to the point prior to transition to Phase I. The ability of hPSCs to be directed to definitive endoderm (DE) in 3D was assessed via the DE marks SOX17 and FOXA2. […] Further differentiation through phases II and III is performed as described above.

hESC line H1 [4] = assay: Phase I gene expression by TaqMan RT-qPCR
Protocol: as §2, with “Cells were photographed during differentiation using a Zeiss phase contrast microscope and ZEN software. The scale bars represent 100 μm.” left out
RNA was isolated from cells using TRIzol according to manufacturer's instructions and quantified using a spectrophotometer (NanoDrop). cDNA was prepared using the High Capacity Reverse Transcription kit and a thermal cycler (both from Life Technologies). […] Expression levels were quantified relative to ACTB and normalised to undifferentiated pluripotent control samples or definitive endoderm cells as specified. […]

hepatic progenitors = assay: Phase III hepatocyte maturation, optimisation of concentrations; conditions: established in HepatoZYME medium; morphology and function
Protocol: as §2, with “Phase III consists of 10 days of treatment with Leibovitz L-15 media containing 8.3% tryptose” left out

[5] = tested on: hESC line 207 and hiPSC Detroit RA, RB, RC derived definitive endoderm; assay: Phase II hepatic specification of other pluripotent lines; conditions: all lines tested; Phase II conditions, 5 days
Protocol: Phase I of differentiation consists of a 24 hour treatment with RPMI-B27±insulin (RPMI 1640 GlutaMAX+B27 supplement, both from Life Technologies) plus 3-4 μM CHIR99021 (Stemgent), followed by a 24 hour treatment with RPMI-B27 alone. Phase II consists of 5 days of treatment with Knockout DMEM containing 20% Knockout Serum Replacement, 2 mM GlutaMAX, 100 μM 2-mercaptoethanol, 1×MEM non-essential amino acids (Life Technologies) and 1% DMSO (Sigma-Aldrich). […]
Cells were washed with PBS before being fixed with a 10 minute treatment of ice cold methanol. […] Cells were imaged using a Zeiss Observer Fluorescence Microscope and Axiovision imaging software. […]
as §3

CYP1A2 = assay: Cytochrome P450 induction, P450-Glo CYP1A2; conditions: 100 μM, 72 hours
Protocol: Induction of cytochrome P450 activity was assessed in both small molecule and growth factor derived HLCs. CYP1A2 activity was detected using the P450-Glo CYP1A2 Induction/Inhibition Assay kit (Promega, Cat. no. V8422). […] Assays were performed according to the manufacturer's instructions for non-lytic P450-Glo assays using cultured cells in monolayers. […] Briefly, cells were cultured to day 20 of the differentiation protocol and Rifampicin or Omeprazole was added to L-15 culture medium, which was formulated as described above, but without dexamethasone or hydrocortisone. […] Briefly, for CYP1 A2 the substrate Luciferin-1A2 was diluted to 6 μM in PBS (calcium/magnesium free) containing 3 mM freshly prepared salicylamide (Sigma). The Luciferin substrate was added to each well (1 ml per well of a 6 well plate), and incubated for 60 minutes followed by detection. […] Basal activity was assessed as above with the omission of inducers. In addition, no cell media controls were included. Finally as a negative control, the pluripotent hESC line H1 was assayed for CYP activity as described above. All data was normalised to total protein content in each well. Data is presented as the mean values of 6 independent experiments; error bars represent standard deviation.

H1 smHLCs = assay: Uptake of indocyanine green; conditions: 1 mg/ml, 1 hour; phase microscopy
Protocol: In order to assess glycogen storage, differentiated cells were fixed and treated with a periodic acid-Schiff staining kit (Sigma-Aldrich) in accordance with manufacturer's instructions and imaged using a Zeiss phase contrast microscope and ZEN software. The scale bars represent 100 μm. The cellular uptake of indocyanine green was assessed. Briefly, ICG (Sigma-Aldrich) was reconstituted in water and used at a final concentration of 1 mg/ml. Cells were incubated in media supplemented with ICG for 1 hour, the cells were then washed with PBS and imaged using a Zeiss phase contrast microscope and ZEN software.

[6] = all lines (207, Detroit RA, RB, RC), 4 μM in RPMI-B27 minus insulin, 48 hours

Molecule: O=C1Nc2cc(Br)ccc2/C1=C1/Nc2ccccc2/C1=N\O [BIO, (2′Z,3′E)-6-Bromoindirubin-3′-oxime]
- Expression of DE proteins FOXA2 and SOX17 by immunofluorescence (hESC line H1 [1]): produce FOXA2/SOX17 positive cells

Molecule: Cc1c[nH]c(-c2cnc(NCCNc3ccc(C#N)cn3)nc2-c2ccc(Cl)cc2Cl)n1 [CHIR99021]
- Expression of DE proteins FOXA2 and SOX17 by immunofluorescence (hESC line H1 [1]): equivalent co-expression
- Phase I differentiation under H1 conditions ([2]; 3 μM, 24 hour treatment, then 24 hours RPMI-B27): very inefficient
- FOXA2 positive cells at Phase I endpoint [2, 6]: 81%-84%
- SOX17 positive cells at Phase I endpoint [2, 6]: 79%-82%
- Optimal concentration for Phase I differentiation ([2]; titration 1-10 μM in RPMI-B27±insulin, optimum in RPMI-B27 minus insulin): 4 µM
- Induction of SOX17 and FOXA2 in 3D over 2D differentiation [3]: an order of magnitude induction
- Time to rapid upregulation of NODAL after exposure (hESC line H1 [4]; 3 μM): ≤ 4 h
- SOX7 levels (primitive endoderm marker) during Phase I (hESC line H1 [4]; 3 μM 24 hour, then 24 hours RPMI-B27): No upregulation

Molecule: C[C@@H]1C[C@H]2[C@@H]3CCC4=CC(=O)C=C[C@]4(C)[C@@]3(F)[C@@H](O)C[C@]2(C)[C@@]1(O)C(=O)CO [DEX, dexamethasone]
- Optimal concentration for hepatic maturation (hepatic progenitors): 100 nM

Molecule: C[S+](C)[O-] [DMSO, Dimethylsulfoxide]
- Efficiency based on AFP/HNF4A co-expression [5]: 86%-89%

Molecule: CCCCCC(=O)N[C@@H](Cc1ccc(O)cc1)C(=O)N[C@H](C(=O)NCCCCCC(N)=O)[C@@H](C)CC [Dihexa, N-hexanoic-Tyr, Ile-(6) aminohexanoic amide] (Hexanoyl-Tyr-Ile-[Ahx]-NH2)
- Optimal concentration for hepatic maturation (hepatic progenitors): 100 nM

Molecule: COc1ccc2[nH]c([S+]([O-])Cc3ncc(C)c(OC)c3C)nc2c1 (stereo not drawn) [Omeprazole]
- Induction of CYP1A2 activity in smHLCs (CYP1A2): significant induction

Molecule: CC1(C)C(/C=C/C=C/C=C/C=C2\N(CCCCS(=O)(=O)O)c3ccc4ccccc4c3C2(C)C)=[N+](CCCCS(=O)(=O)[O-])c2ccc3ccccc3c21 [indocyanine green]
- Cellular uptake in smHLCs (H1 smHLCs): ICG positive cells were clearly visible

Molecule: Wnt3a
- Expression of DE proteins FOXA2 and SOX17 by immunofluorescence (hESC line H1 [1]): sufficient to produce populations of cells that expressed the DE markers FOXA2 and SOX17
